In patent publication US20250325501A1, “A SPHINGOSINE-1-PHOSPHATE RECEPTOR (S1PR) MODULATOR FOR USE IN TREATING A PATIENT SUFFERING FROM ALZHEIMER'S DEMENTIA” (Otto-von-Guericke-Universitaet Magdeburg, priority 2022, published 2025):

Experiments:
[1] = tested on: APP/PS1 Alzheimer's disease (AD) mouse model; experiment: Dendritic spine density analysis (Golgi-Cox staining) in APP/PS1 AD mice; format: in vivo; conditions: for spine deficits in CA3 pyramidal neurons and dentate gyrus granule cells: 15-month-old male AD mice
[2] = CD11c+/CD14+ age/AD-associated microglia in the cortex of AD mice; format: in vivo, mouse; conditions: 15-month-old male AD mice; 1.0 mg/kg/2nd day for 1 month; FIG. 8
Protocol: (§1) The therapeutic effect of fingolimod (FTY720) as an example for an S1PR modulator for use in the treatment of Alzheimer's disease was tested in an established double transgenic amyloid precursor protein/presenilin-1 (APP/PS1) Alzheimer's disease (AD) mouse model that starts to develop amyloid-β (Aβ) pathology in the neocortex and hippocampus at two and four months of age, respectively. This AD mouse model is particularly close to human AD pathology. Impaired LTP (long-term potentiation) at Schaffer collateral CA1 synapses in acute slices ex vivo is observed at five months in these mice and becomes detectable with in vivo recordings beyond six months of age. Moreover, hippocampus-dependent learning deficits in this APP/PS1 mouse model become apparent five to eight months after birth.
(§2) Male APP/PS1 mice and littermate controls (wild-type healthy mice) were treated with intraperitoneal (i.p.) injections of fingolimod (FTY720; dissolved in 3% DMSO, 1.0 mg/kg or 3.0 mg/kg body weight) every second day for 1 to 2 months.
(§3) Substance A: Control, Substance B: FTY720 (1.0 mg/kg/2nd day) for 1 month.

[3] = tested on: CD11c+/CD14+ age/AD-associated microglia; experiment: as above; format: in vivo, mouse; conditions: 15-month-old male AD mice; 1.0 mg/kg/2nd day for 1 month; FIG. 9
Protocol: as §1, §2, §3

[4] = tested on: APP/PS1 Alzheimer's disease (AD) mouse model; experiment: Contextual fear learning in AD mice; format: in vivo; conditions: 15-month-old male AD mice; 3.0 mg/kg/2nd day for 1 month; FIG. 3
Protocol: as §1, with “birth. […]” for “birth.”
The analyses of the animals comprises dendritic spine density analysis, LTP recordings, Morris water maze spatial learning and memory testing, contextual fear condition training and memory testing, immunohistological stainings of microgliosis and astrogliosis, biochemical brain-derived neurotrophic factor (BDNF) quantification and downstream TrkB receptor (a high affinity BDNF receptor) signaling, and statistical analysis.

Structure (SMILES)	spine deficits in CA1 pyramidal neurons ([1]; aged (16-month-old) male AD mice, 1 mg/kg via drinking water for 1 month, starting at 15 months, FIG. 7)	increased frequency of CD11c+/CD14+ age/AD-associated microglia in the cortex [2]	increased number of CD11c+/CD14+ age/AD-associated microglia in the cortex [3]	deficit in contextual fear learning [4]	spine deficits in CA1 pyramidal neurons ([1]; 6-7-month-old male AD mice, low dose 0.2 mg/kg/2nd day for 1 month, FIG. 6)	spine deficits in CA3 pyramidal neurons and dentate gyrus granule cells ([1]; 1.0 mg/kg/2nd day for 1 month, near and distant to plaques, FIG. 4, 1 mg/kg)	spine deficits in CA3 pyramidal neurons and dentate gyrus granule cells ([1]; 1.0 mg/kg/2nd day for 1 month, near and distant to plaques, FIG. 4, listed as FTY, 1 mg/kg)	spine deficits in CA3 pyramidal neurons and dentate gyrus granule cells ([1]; 3.0 mg/kg/2nd day for 1 month, FIG. 5)	number of synaptic spines versus same-aged healthy mice (wild-type littermates) ([1]; AD mice at 6-7 months and 15-16 months, short-term treatment)	spine deficits in dendrites close to plaques ([1]; APP/PS1 mice, CA1 secondary apical dendrites <50 μm from nearest plaque, FIGS. 1 and 2)	spine deficits in dendrites distant to plaques ([1]; APP/PS1 mice, CA1 secondary apical dendrites >50 μm from closest plaque, FIGS. 1 and 2)	spine deficits in CA1 pyramidal neurons ([1]; male 15-month-old AD model mice, FIG. 1)
CC(C)Oc1ccc(-c2nc(-c3cccc4c3CC[C@@H]4NCCO)no2)cc1C#N [Ozanimod]	very similar capacity to restore spine deficits											
CCCCCCCCc1ccc(CCC(N)(CO)CO)cc1 [Fingolimod]		reduces the increased frequency	reduces the increased number	restored the deficit	restored spine deficits	restored spine deficits	completely rescued spine decrease near and distant to AB plaques	restored spine deficits	restored at both ages (6-7 months and 15-16 months) to the level of same-aged healthy mice	significant amelioration of spine deficits	complete rescue of spine deficits	restored spine deficits
